# Patent EP3033337B1, “SUBSTITUTED IMIDAZOLES AS N-TYPE CALCIUM CHANNEL BLOCKERS” (Janssen Pharmaceutica NV, priority 2013, dated 2015)
# Key:
# [1] = target: T1, human N-type Ca channel (Homo sapiens, UniProt Q00975); test: Calcium influx assay (FDSS), KCl depolarization, Fluo8 dye; assay type: cell-based; set-up: host or cells: HEK 293; conditions: HEK 293 cells expressing human N-type Ca channel; 100 mM KCl; read-out: N Type IC50 Data FDSS
# Protocol: All cell culture reagents were procured from HyClone and other reagents were from Fisher. Recombinant HEK 293 cells expressing human N-type Ca channel (Millipore) were maintained in DMEM F12 containing 10% FBS and selection antibiotics at 37 °C in 5% CO2.
# Cells were incubated at 30 °C in 5% CO2 overnight. The medium was removed and cells were loaded with Fluo8 dye (AAT Bioquest) at 37 °C and 30 °C, 30 min each in darkness. Cells were washed four times with wash buffer (16 mM Herep pH 7.2, 2 mM CaCl2, 1 mM MgCl2, 5 mM glucose, 140 mM choline chloride and 2 mM KCl) leaving 15 µL buffer after the last wash. Compounds of Formula (I), serially diluted, were added to the cell plate. The plates were incubated in darkness for 15 min. Cells were depolarized with 100 mM KCl and Ca influx was measured.
# [2] = target: T1, human N-type Ca channel; test: Electrophysiological response, QPatch (depolarization -80 mV to +20 mV); conditions: for inhibition at 10 µM: read-out: Qpatch Pulse=1 (percent inhibition)
# Protocol: The recombinant cell line described above was used in the measurement of electrophysiological properties with QPatch (Sophion). Cells were maintained in culture as mentioned above. Prior to the experiment, the flasks were moved to 30 °C and incubated for 48-72 hrs. On the day of assaying, cells were detached and harvested. The cell pellet was re-suspended in SMF4HEK (HyClone)/25mM HEPS at 2-5 million/ mL and placed on the QStirrer of the QPatch for 30-60 min prior to the start of the assay. […] Microtiter-Plate/Reference Buffer contained 140 mM TEA-Cl, 10mM BaCl2, 0.8 mM MgCl2, 10 mM HEPES pH ∼7.4 adjusted with TEA-OH/HCl, and ∼300mOsm. Cells were transferred to a QPatch 48 plate and gigaseal was formed. The plate was perfused with intracellular and extracellular buffer. […] In brief, cells were depolarized from resting potential of -80 mV to +20 mV and current was recorded. Data was plotted as percent inhibition vs concentration of the compound and IC50 values were generated using Graphpad Prism non-linear regression analysis.
# [3] = read-out: N Type IC50 Data Qpatch Pulse=1, Pulse=1, concentration range 0.01-1 µM
# [4] = read-out: N Type IC50 Data Qpatch Pulse=15, Pulse=15, concentration range 0.01-1 µM
# [5] = N Type IC50 Data Qpatch Pulse=1, Pulse=1, concentration range 0.3-10 µM
# [6] = N Type IC50 Data Qpatch Pulse=15, Pulse=15, concentration range 0.3-10 µM
# [7] = N Type IC50 Data Qpatch Pulse=1, Pulse=1, concentration range 0.01-1 µM
# [8] = N Type IC50 Data Qpatch Pulse=15, Pulse=15, concentration range 0.01-1 µM
# T1 sequence (Q00975 whole entry): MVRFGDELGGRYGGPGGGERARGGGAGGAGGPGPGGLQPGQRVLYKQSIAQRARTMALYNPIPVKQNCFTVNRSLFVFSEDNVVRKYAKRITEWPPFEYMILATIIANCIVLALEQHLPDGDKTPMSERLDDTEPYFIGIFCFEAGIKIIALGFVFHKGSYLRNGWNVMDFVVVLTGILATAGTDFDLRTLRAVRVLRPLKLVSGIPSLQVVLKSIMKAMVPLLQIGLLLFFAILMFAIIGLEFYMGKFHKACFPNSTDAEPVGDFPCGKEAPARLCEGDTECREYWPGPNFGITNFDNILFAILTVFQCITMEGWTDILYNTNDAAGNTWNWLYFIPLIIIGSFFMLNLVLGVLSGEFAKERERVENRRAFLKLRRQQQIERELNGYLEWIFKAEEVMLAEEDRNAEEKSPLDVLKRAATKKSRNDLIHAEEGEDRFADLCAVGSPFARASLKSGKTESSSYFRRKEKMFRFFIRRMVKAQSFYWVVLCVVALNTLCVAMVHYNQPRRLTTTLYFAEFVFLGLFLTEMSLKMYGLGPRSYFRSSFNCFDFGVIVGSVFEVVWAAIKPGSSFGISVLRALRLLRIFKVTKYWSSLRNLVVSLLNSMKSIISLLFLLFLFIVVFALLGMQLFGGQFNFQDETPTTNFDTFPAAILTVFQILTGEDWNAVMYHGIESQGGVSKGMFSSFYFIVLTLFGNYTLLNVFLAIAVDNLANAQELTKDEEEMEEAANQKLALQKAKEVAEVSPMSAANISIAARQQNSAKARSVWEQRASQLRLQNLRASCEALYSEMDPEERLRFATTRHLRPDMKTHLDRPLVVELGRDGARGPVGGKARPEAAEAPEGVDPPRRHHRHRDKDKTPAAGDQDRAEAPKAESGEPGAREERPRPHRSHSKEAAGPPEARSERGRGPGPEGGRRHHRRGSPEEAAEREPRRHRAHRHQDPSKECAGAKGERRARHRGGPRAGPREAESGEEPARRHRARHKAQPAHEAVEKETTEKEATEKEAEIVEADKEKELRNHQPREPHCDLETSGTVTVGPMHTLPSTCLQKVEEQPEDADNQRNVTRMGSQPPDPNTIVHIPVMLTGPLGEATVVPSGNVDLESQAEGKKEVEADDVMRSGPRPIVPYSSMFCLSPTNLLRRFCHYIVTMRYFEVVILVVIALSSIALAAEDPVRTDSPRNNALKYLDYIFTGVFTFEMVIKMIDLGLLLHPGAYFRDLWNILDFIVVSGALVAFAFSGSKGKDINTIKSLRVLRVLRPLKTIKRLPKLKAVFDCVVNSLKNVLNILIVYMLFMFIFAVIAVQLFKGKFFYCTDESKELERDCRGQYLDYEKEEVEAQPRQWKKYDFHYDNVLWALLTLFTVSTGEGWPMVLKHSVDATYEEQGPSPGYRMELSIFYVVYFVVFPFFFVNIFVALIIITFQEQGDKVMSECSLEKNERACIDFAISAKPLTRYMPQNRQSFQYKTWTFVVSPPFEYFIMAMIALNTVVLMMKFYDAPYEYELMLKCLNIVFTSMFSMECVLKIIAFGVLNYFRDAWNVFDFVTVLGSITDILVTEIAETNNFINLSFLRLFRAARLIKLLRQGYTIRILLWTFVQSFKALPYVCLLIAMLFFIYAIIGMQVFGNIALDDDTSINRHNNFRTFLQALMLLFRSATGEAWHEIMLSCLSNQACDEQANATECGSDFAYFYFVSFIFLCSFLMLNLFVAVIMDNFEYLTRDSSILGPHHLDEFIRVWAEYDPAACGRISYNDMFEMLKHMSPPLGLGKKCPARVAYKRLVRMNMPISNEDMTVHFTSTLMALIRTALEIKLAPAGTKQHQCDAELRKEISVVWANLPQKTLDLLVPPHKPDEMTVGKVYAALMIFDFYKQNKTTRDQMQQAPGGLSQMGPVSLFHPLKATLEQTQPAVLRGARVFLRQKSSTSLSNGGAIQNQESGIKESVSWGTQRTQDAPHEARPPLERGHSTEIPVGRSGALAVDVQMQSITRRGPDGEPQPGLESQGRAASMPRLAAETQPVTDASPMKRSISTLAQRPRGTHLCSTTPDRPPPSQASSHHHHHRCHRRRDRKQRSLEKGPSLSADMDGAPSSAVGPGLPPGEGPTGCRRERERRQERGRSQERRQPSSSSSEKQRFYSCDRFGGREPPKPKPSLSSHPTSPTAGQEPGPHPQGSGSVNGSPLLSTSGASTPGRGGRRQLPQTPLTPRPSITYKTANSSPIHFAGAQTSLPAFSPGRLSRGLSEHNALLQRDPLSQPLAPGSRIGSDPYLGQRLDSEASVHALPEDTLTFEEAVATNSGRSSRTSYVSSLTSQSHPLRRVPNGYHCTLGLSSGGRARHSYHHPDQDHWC
# T1 sequence (P54284 whole entry partner): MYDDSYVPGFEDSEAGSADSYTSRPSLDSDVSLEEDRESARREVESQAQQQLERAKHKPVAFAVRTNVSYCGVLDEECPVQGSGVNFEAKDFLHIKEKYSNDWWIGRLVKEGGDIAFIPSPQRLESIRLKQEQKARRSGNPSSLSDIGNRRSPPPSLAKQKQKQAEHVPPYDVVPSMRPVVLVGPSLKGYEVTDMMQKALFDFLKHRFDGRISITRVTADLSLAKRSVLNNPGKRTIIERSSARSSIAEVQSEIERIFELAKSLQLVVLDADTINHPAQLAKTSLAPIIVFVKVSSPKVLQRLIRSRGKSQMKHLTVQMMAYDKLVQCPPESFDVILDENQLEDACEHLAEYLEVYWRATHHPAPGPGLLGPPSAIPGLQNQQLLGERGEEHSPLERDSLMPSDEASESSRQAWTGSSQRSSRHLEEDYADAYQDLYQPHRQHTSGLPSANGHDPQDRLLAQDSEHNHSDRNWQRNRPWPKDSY
# T1 sequence (P54289 25-956 partner limits assumed): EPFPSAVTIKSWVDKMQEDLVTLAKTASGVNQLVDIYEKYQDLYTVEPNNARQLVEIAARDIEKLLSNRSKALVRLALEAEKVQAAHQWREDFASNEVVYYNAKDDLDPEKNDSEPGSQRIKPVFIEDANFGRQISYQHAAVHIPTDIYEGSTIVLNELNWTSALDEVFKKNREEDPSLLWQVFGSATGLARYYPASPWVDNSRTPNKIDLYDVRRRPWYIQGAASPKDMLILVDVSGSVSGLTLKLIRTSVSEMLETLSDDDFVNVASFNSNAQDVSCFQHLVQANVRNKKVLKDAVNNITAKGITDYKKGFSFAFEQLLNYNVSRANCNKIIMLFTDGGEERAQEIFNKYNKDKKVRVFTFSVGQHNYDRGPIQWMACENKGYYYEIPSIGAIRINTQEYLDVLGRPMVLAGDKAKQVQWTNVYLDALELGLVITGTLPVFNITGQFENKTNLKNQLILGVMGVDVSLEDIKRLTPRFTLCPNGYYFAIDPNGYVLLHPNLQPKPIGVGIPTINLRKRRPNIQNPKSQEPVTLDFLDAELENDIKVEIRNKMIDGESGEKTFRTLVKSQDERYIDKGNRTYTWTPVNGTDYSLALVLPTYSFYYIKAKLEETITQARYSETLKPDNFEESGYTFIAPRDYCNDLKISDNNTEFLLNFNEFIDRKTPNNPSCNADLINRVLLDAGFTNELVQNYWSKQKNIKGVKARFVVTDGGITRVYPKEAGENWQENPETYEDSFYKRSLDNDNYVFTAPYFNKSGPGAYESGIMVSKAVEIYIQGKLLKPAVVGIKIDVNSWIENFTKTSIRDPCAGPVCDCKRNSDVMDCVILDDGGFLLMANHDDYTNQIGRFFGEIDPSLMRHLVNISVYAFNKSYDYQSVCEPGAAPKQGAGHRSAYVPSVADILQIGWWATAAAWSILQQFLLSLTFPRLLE
# T1 sequence (P54289 957-1103 partner limits assumed): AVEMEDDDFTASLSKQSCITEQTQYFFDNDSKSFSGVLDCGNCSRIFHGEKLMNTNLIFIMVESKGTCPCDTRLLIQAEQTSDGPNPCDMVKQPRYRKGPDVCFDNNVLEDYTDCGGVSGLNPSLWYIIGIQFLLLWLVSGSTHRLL
Structure (SMILES),IC50 [1],"IC50 [2, 4]","IC50 [2, 6]","IC50 [2, 7]",other results
"COc1ncccc1-c1nc(C2CC(C)(C)OC(C)(C)C2)cn1-c1ccc(C#N)cc1 [Compound 43, 4-(2-(2-methoxypyridin-3-yl)-4-(2,2,6,6-tetramethyltetrahydro-2H-pyran-4-yl)-1H-imidazol-1-yl)benzonitrile]",291 nM,,7500 nM,,inhibition at 10 µM [2]: 34%
"COc1nccnc1-c1nc(C2CC(C)(C)OC(C)(C)C2)cn1-c1ccc(F)cc1 [Compound 47, 2-(1-(4-fluorophenyl)-4-(2,2,6,6-tetramethyltetrahydro-2H-pyran-4-yl)-1H-imidazol-2-yl)-3-methoxypyrazine]",1540 nM,> 1000 nM,,> 1000 nM,
"COc1ncccc1-c1nc(C2CC(C)(C)OC(C)(C)C2)cn1-c1cccc(C#N)c1 [Compound 48, 3-(2-(2-methoxypyridin-3-yl)-4-(2,2,6,6-tetramethyltetrahydro-2H-pyran-4-yl)-1H-imidazol-1-yl)benzonitrile]",5410 nM,,,222 nM,"IC50 [2, 8]: 843 nM"
"COc1nccnc1-c1nc(C2CC(C)(C)OC(C)(C)C2)cn1-c1ccc(Cl)cc1 [Compound 50, 2-(1-(4-chlorophenyl)-4-(2,2,6,6-tetramethyltetrahydro-2H-pyran-4-yl)-1H-imidazol-2-yl)-3-methoxypyrazine]",215 nM,,,> 1000 nM,"IC50 [2, 8]: 971 nM"
"CCOc1ncccc1-c1nc(C2CC(C)(C)OC(C)(C)C2)cn1-c1ccc(Cl)cc1 [Compound 51, 3-(1-(4-chlorophenyl)-4-(2,2,6,6-tetramethyltetrahydro-2H-pyran-4-yl)-1H-imidazol-2-yl)-2-ethoxypyridine]",29 nM,,,179 nM,"IC50 [2, 8]: 701 nM"
"COc1ncccc1-c1nc(C2CC(C)(C)OC(C)(C)C2)cn1-c1ccc(C(F)(F)F)nc1 [Compound 54, 2-methoxy-3-(4-(2,2,6,6-tetramethyltetrahydro-2H-pyran-4-yl)-1-(6-(trifluoromethyl)pyridin-3-yl)-1H-imidazol-2-yl)pyridine]",1960 nM,,,302 nM,"IC50 [2, 8]: 237 nM; N Type IC50 Data Qpatch Pulse=1 ([2]; Pulse=1, concentration range 0.01-1 µM): Poor fit; N Type IC50 Data Qpatch Pulse=15 ([2]; Pulse=15, concentration range 0.01-1 µM): Poor fit"
"CC1(C)CC(c2cn(-c3ccc(Cl)cc3)c(CC3CC3)n2)CC(C)(C)O1 [Compound 55, 1-(4-chlorophenyl)-2-(cyclopropylmethyl)-4-(2,2,6,6-tetramethyltetrahydro-2H-pyran-4-yl)-1H-imidazole]",384 nM,,,,"IC50 [2, 8]: 780 nM"
"CC1(C)CC(c2cn(-c3ccc(Cl)cc3)c(C3CC3)n2)CC(C)(C)O1 [Compound 56, 1-(4-chlorophenyl)-2-cyclopropyl-4-(2,2,6,6-tetramethyltetrahydro-2H-pyran-4-yl)-1H-imidazole]",1670 nM,> 1000 nM,,,"IC50 [2, 3]: > 1000 nM"
"CC1(C)CC(c2cn(-c3ccc(C#N)cc3)c(C3CC3)n2)CC(C)(C)O1 [Compound 57, 4-(2-cyclopropyl-4-(2,2,6,6-tetramethyltetrahydro-2H-pyran-4-yl)-1H-imidazol-1-yl)benzonitrile]",10000 nM,> 1000 nM,,,"IC50 [2, 3]: > 1000 nM"
"CC1(C)CC(c2cn(-c3ccc(C#N)cc3)c(CC3CC3)n2)CC(C)(C)O1 [Compound 58, 4-(2-(cyclopropylmethyl)-4-(2,2,6,6-tetramethyltetrahydro-2H-pyran-4-yl)-1H-imidazol-1-yl)benzonitrile]",4810 nM,> 1000 nM,,,"IC50 [2, 3]: > 1000 nM"

# Further lines, with some results ahead:
IC50 [1],"IC50 [2, 4]","IC50 [2, 6]","IC50 [2, 7]",Structure (SMILES),other results
424 nM,> 1000 nM,,,"COc1ccc(-n2cc(C3CC(C)(C)OC(C)(C)C3)nc2-c2ccccc2OC)cc1C#N [Compound 37, 2-methoxy-5-(2-(2-methoxyphenyl)-4-(2,2,6,6-tetramethyltetrahydro-2H-pyran-4-yl)-1H-imidazol-1-yl)benzonitrile]","IC50 [2, 3]: > 1000 nM"
163 nM,,1900 nM,,"COc1ccccc1-c1nc(C2CC(C)(C)OC(C)(C)C2)cn1-c1ccc(Cl)cn1 [Compound 39, 5-chloro-2-(2-(2-methoxyphenyl)-4-(2,2,6,6-tetramethyltetrahydro-2H-pyran-4-yl)-1H-imidazol-1-yl)pyridine]","IC50 [2, 5]: 1700 nM"
822 nM,,1940 nM,,"COc1ncccc1-c1nc(C2CC(C)(C)OC(C)(C)C2)cn1-c1ccc(F)c(F)c1 [Compound 40, 3-(1-(3,4-difluorophenyl)-4-(2,2,6,6-tetramethyltetrahydro-2H-pyran-4-yl)-1H-imidazol-2-yl)-2-methoxypyridine]",inhibition at 10 µM [2]: 52%
131 nM,,602 nM,,"COc1ccccc1-c1nc(C2CC(C)(C)OC(C)(C)C2)cn1-c1ccc(Cl)c(F)c1 [Compound 41, 1-(4-chloro-3-fluorophenyl)-2-(2-methoxyphenyl)-4-(2,2,6,6-tetramethyltetrahydro-2H-pyran-4-yl)-1H-imidazole]",inhibition at 10 µM [2]: 71%
194 nM,,1080 nM,,"COc1ccccc1-c1nc(C2CC(C)(C)OC(C)(C)C2)cn1-c1ccc(F)c(F)c1 [Compound 42, 1-(31,4-difluorophenyl)-2-(2-methoxyphenyl)-4-(2,2,6,6-tetramethyltetrahydro-2H-pyran-4-yl)-1H-imidazole]","IC50 [2, 5]: 2600 nM"
142 nM,,3080 nM,,"COc1ncccc1-c1nc(C2CC(C)(C)OC(C)(C)C2)cn1-c1ccc(Cl)c(F)c1 [Compound 44, 3-(1-(4-chloro-3-fluorophenyl)-4-(2,2,6,6-tetramethyltetrahydro-2H-pyran-4-yl)-1H-imidazol-2-yl)-2-methoxypyridine]","IC50 [2, 5]: 2900 nM"
149 nM,,671 nM,,"COc1ccccc1-c1nc(C2CC(C)(C)OC(C)(C)C2)cn1-c1ccc(F)c(Cl)c1 [Compound 45, 1-(3-chloro-4-fluorophenyl)-2-(2-methoxyphenyl)-4-(2,2,6,6-tetramethyltetrahydro-2H-pyran-4-yl)-1H-imidazole]","IC50 [2, 5]: 2200 nM"
255 nM,,2500 nM,,"COc1ncccc1-c1nc(C2CC(C)(C)OC(C)(C)C2)cn1-c1ccc(F)c(Cl)c1 [Compound 46, 3-(1-(3-chloro-4-fluorophenyl)-4-(2,2,6,6-tetramethyltetrahydro-2H-pyran-4-yl)-1H-imidazol-2-yl)-2-methoxypyridine]",
123 nM,> 1000 nM,,> 1000 nM,"COc1ncncc1-c1nc(C2CC(C)(C)OC(C)(C)C2)cn1-c1ccc(Cl)cc1 [Compound 49, 5-(1-(4-chlorophenyl)-4-(2,2,6,6-tetramethyltetrahydro-2H-pyran-4-yl)-1H-imidazol-2-yl)-4-methoxypyrimidine]",
115 nM,> 1000 nM,,721 nM,"CCOc1ncccc1-c1nc(C2CC(C)(C)OC(C)(C)C2)cn1-c1ccc(F)c(F)c1 [Compound 52, 3-(1-(3,4-difluorophenyl)-4-(2,2,6,6-tetramethyltetrahydro-2H-pyran-4-yl)-1H-imidazol-2-yl)-2-ethoxypyridine]",
96 nM,,2010 nM,,"COc1ccccc1-c1nc(C2CC(C)(C)OC(C)(C)C2)cn1-c1ccc(C(F)(F)F)nc1 [Compound 53, 5-(2-(2-methoxyphenyl)-4-(2,2,6,6-tetramethyltetrahydro-2H-pyran-4-yl)-1H-imidazol-1-yl)-2-(trifluoromethyl)pyridine]","IC50 [2, 5]: 6500 nM"
